The values that follow come from patent US20100311714A1, “1H-IMIDAZO[4,5-c]QUINOLINONE COMPOUNDS” (priority 2009, published 2010).

pIC50: −log10 of the molar value.

The target in one assay is T1, PI3K delta (Homo sapiens, UniProt O00329).
T1 construct: for the full-length p110-d subunit are generated and fused by overlapping PCR; His tag (C); made in house; host or cells: baculovirus BV1060; Tn5 (Trichoplusia ni) or TiniPro insect cells
Kind of assay: PI3K delta kinase assay (Kinase-Glo luminescence). In kind it is biochemical. The settings on record: read-out: EPK_PI3Kdelta/IC50. The method, boiled down: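 Kinase-Glo ATP-depletion luminescence using 10 nM p85(iSH2)-linker-p110δ full-length His-tag construct from insect cells, with 1 μM ATP and 10 μg/mL phosphatidylinositol in 10 mM Tris pH 7.5, 3 mM MgCl2, 50 mM NaCl, 0.05% CHAPS, 1 mM DTT. 60 min room temperature; IC50 from 4-parameter logistic fit over 8 concentrations.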
(Kinase-Glo reads ATP consumption through a luciferase reaction.)

A further assay has as its target T2, mTOR (Homo sapiens, UniProt P42345).
T2 construct: purchased Invitrogen Corporation (Carlsbad/Calif., USA) PV4753
Kind of assay: Biochemical assay for m-TOR by TR-FRET. The settings on record: read-out: EPK_mTOR/IC50. In short, it runs like this: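 mTOR (0.5 nM) phosphorylates GFP-4EBP1 (400 nM) with 8 μM ATP at rt in 50 mM HEPES pH 7.5, 10 mM MnCl2, 50 mM NaCl, 1 mM EGTA, 1 mM DTT; compounds 0.003–10 μM final. EDTA stop with Tb-anti-p4EBP1[pT46] antibody (0.5 nM); TR-FRET read after 15 min against no-enzyme and vehicle controls.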
(TR-FRET usually uses a lanthanide donor and a delayed reading to cut background.)

T1 sequence (O00329 with tags, fused parts or gaps limits assumed): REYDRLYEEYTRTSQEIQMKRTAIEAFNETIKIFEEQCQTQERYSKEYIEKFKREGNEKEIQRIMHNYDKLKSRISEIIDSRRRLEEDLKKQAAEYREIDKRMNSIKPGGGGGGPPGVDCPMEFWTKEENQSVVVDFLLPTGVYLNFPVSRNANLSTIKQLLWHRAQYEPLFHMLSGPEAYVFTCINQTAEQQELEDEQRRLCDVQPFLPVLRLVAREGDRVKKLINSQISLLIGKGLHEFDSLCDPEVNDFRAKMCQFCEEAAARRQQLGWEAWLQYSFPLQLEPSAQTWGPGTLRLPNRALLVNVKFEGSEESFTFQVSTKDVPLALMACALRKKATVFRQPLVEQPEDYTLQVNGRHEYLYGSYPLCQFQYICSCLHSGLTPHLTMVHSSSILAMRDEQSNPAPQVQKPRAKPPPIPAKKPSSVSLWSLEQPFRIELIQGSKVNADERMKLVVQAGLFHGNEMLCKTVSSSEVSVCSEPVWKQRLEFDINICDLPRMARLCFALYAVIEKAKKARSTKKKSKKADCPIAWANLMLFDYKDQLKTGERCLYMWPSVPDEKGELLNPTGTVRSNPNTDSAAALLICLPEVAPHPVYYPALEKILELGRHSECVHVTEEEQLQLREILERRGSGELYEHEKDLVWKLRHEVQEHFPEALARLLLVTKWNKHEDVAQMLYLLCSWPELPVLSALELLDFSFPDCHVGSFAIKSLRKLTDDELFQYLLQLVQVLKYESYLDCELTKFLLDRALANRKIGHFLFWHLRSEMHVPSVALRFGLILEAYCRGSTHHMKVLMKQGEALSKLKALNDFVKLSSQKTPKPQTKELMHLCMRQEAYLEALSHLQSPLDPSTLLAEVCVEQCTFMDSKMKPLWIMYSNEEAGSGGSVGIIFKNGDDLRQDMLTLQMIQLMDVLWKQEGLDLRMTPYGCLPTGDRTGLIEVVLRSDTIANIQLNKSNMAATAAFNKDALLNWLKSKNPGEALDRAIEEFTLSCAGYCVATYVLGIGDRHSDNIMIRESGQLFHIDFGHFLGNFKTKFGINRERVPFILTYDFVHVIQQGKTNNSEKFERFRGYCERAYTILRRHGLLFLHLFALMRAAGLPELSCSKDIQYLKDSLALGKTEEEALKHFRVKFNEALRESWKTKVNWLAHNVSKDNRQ
T2 sequence (P42345 1360-2549 limits assumed): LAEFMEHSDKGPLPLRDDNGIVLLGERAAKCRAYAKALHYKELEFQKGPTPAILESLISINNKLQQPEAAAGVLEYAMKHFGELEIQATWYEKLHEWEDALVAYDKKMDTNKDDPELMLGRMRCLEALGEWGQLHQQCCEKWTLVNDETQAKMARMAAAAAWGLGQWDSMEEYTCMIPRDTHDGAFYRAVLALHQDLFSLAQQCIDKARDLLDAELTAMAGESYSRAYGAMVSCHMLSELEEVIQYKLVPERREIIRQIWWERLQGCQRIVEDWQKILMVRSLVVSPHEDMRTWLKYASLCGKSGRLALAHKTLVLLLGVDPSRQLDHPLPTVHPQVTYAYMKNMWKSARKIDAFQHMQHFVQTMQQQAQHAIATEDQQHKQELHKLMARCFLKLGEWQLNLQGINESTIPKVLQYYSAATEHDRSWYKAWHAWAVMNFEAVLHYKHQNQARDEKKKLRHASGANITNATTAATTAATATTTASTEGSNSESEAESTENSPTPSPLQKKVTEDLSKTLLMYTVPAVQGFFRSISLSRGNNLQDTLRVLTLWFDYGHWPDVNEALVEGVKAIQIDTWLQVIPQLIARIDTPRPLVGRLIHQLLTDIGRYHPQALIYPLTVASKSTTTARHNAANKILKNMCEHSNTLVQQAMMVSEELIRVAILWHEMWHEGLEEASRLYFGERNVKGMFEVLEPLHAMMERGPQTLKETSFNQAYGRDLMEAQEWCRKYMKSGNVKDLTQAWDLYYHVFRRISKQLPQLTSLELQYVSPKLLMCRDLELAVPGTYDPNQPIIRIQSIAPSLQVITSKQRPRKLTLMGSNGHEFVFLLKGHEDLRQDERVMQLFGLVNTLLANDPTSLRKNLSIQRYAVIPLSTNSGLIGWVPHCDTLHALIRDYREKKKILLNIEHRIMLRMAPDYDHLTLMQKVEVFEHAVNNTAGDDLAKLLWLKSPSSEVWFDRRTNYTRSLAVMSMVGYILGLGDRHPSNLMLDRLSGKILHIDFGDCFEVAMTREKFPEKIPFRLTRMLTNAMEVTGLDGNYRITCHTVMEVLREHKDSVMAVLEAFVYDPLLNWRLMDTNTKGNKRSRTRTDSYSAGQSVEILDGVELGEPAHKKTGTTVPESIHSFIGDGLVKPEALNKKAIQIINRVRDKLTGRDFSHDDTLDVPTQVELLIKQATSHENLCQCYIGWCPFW

Turning to `COc1ccc(-n2c(=O)n(C)c3cnc4ccc(-c5cnc(N(C)C)nc5)cc4c32)c(Cl)n1` [Example 18.3, 1-(2-Chloro-6-methoxy-pyridin-3-yl)-8-(2-dimethylamino-pyrimidin-5-yl)-3-methyl-1,3-dihydro-imidazo[4,5-c]quinolin-2-one], the pIC50 is 8.40 at PI3K delta and 6.67 at mTOR.

As for `CNc1ncc(-c2ccc3ncc4c(c3c2)n(-c2ccc(N(C)C)nc2C)c(=O)n4C)cn1` [Example 19.1, 1-(6-Dimethylamino-2-methyl-pyridin-3-yl)-3-methyl-8-(2-methylamino-pyrimidin-5-yl)-1,3-dihydro-imidazo[4,5-c]quinolin-2-one], the pIC50 at PI3K delta was 7.92; on mTOR, 8.52.

Turning to `CNc1cc(-c2ccc3ncc4c(c3c2)n(-c2ccc(N(C)C)nc2C)c(=O)n4C)cnc1C` [Example 19.2, 1-(6-Dimethylamino-2-methyl-pyridin-3-yl)-3-methyl-8-(6-methyl-5-methylamino-pyridin-3-yl)-1,3-dihydro-imidazo[4,5-c]quinolin-2-one], the pIC50 was 7.55 at PI3K delta and 8.05 on mTOR.

With `COc1cc(-c2ccc3ncc4c(c3c2)n(-c2ccc(N(C)C)nc2C)c(=O)n4C)cnc1CO` [Example 19.4, 1-(6-Dimethylamino-2-methyl-pyridin-3-yl)-8-(6-hydroxymethyl-5-methoxy-pyridin-3-yl)-3-methyl-1,3-dihydro-imidazo[4,5-c]quinolin-2-one], the pIC50 was 7.62 on PI3K delta and 7.38 on mTOR.

Turning to `Cc1nc(N(C)C)ccc1-n1c(=O)n(C)c2cnc3ccc(-c4cncc(N)c4)cc3c21` [Example 19.5, 8-(5-Amino-pyridin-3-yl)-1-(6-dimethylamino-2-methyl-pyridin-3-yl)-3-methyl-1,3-dihydro-imidazo[4,5-c]quinolin-2-one], the pIC50 was 7.17 at PI3K delta and 8.05 at mTOR.

Regarding `COCC(=O)Nc1ccc(-n2c(=O)n(C)c3cnc4ccc(-c5cncc(N)c5)cc4c32)c(C)n1` [Example 20.1, N-{5-[8-(5-Amino-pyridin-3-yl)-3-methyl-2-oxo-2,3-dihydro-imidazo[4,5-c]quinolin-1-yl]-6-methyl-pyridin-2-yl}-2-methoxy-acetamide], the pIC50 was 7.47 on PI3K delta and 8.15 on mTOR.

Take `CCOc1ccc(-c2ccc3ncc4c(c3c2)n(-c2ccc(NC(=O)COC)nc2C)c(=O)n4C)cn1` [Example 20.2, N-{5-[8-(6-Ethoxy-pyridin-3-yl)-3-methyl-2-oxo-2,3-dihydro-imidazo[4,5-c]quinolin-1-yl]-6-methyl-pyridin-2-yl}-2-methoxy-acetamide]: the pIC50 was 6.61 on PI3K delta and 6.81 at mTOR.

As for `CNc1ncc(-c2ccc3ncc4c(c3c2)n(-c2ccc(NC(=O)COC)nc2C)c(=O)n4C)cn1` [Example 20.3, 2-Methoxy-N-{6-methyl-5-[3-methyl-8-(2-methylamino-pyrimidin-5-yl)-2-oxo-2,3-dihydro-imidazo[4,5-c]quinolin-1-yl]-pyridin-2-yl}-acetamide], the pIC50 is 6.39 at PI3K delta and 7.23 at mTOR.

With `CNc1ccc(-c2ccc3ncc4c(c3c2)n(-c2ccc(NC(=O)COC)nc2C)c(=O)n4C)cn1` [Example 20.4, 2-Methoxy-N-{6-methyl-5-[3-methyl-8-(6-methylamino-pyridin-3-yl)-2-oxo-2,3-dihydro-imidazo[4,5-c]quinolin-1-yl]-pyridin-2-yl}-acetamide], the pIC50 was 7.11 on PI3K delta and 7.96 at mTOR.

In the case of `COCC(=O)Nc1ccc(-n2c(=O)n(C)c3cnc4ccc(-c5cncc(OC(C)C)c5)cc4c32)c(C)n1` [Example 20.5, N-{5-[8-(5-Isopropoxy-pyridin-3-yl)-3-methyl-2-oxo-2,3-dihydro-imidazo[4,5-c]quinolin-1-yl]-6-methyl-pyridin-2-yl}-2-methoxy-acetamide], the pIC50 is 6.85 at PI3K delta and 6.05 on mTOR.

With `COCCOc1ccc(-n2c(=O)n(C)c3cnc4ccc(-c5cncc(N6CCC6)c5)cc4c32)c(C)n1` [Example 22.2, 8-(5-Azetidin-1-yl-pyridin-3-yl)-1-[6-(2-methoxy-ethoxy)-2-methyl-pyridin-3-yl]-3-methyl-1,3-dihydro-imidazo[4,5-c]quinolin-2-one], the figures for the pIC50 on PI3K delta and on mTOR were 7.00 and 7.68, respectively.

Take `COCCOc1ccc(-n2c(=O)n(C)c3cnc4ccc(-c5cnc(COC)c(OC)c5)cc4c32)c(C)n1` [Example 22.3, 1-[6-(2-Methoxy-ethoxy)-2-methyl-pyridin-3-yl]-8-(5-methoxy-6-methoxymethyl-pyridin-3-yl)-3-methyl-1,3-dihydro-imidazo[4,5-c]quinolin-2-one]: the pIC50 at PI3K delta was 7.25; at mTOR it was 6.85.

With `Cc1nc(N2CC(F)(F)C2)ccc1-n1c(=O)n(C)c2cnc3ccc(-c4cncc(C(C)(C)O)c4)cc3c21` [Example 24.2, 1-[6-(3,3-Difluoro-azetidin-1-yl)-2-methyl-pyridin-3-yl]-8-[5-(1-hydroxy-1-methyl-ethyl)-pyridin-3-yl]-3-methyl-1,3-dihydro-imidazo[4,5-c]quinolin-2-one], the pIC50 on PI3K delta was 7.74; at mTOR, 7.32.

Take `CCNc1cc(-c2ccc3ncc4c(c3c2)n(-c2ccc(N3CC(F)(F)C3)nc2C)c(=O)n4C)cnc1CO` [Example 24.3, 1-[6-(3,3-Difluoro-azetidin-1-yl)-2-methyl-pyridin-3-yl]-8-(5-ethylamino-6-hydroxymethyl-pyridin-3-yl)-3-methyl-1,3-dihydro-imidazo[4,5-c]quinolin-2-one]: the figures for the pIC50 on PI3K delta and at mTOR were 7.26 and greater than 8.52, respectively.

For `CNc1ccc(-c2ccc3ncc4c(c3c2)n(-c2ccc(N3CCCC3)nc2C)c(=O)n4C)cn1` [Example 25.1, 3-Methyl-8-(6-methylamino-pyridin-3-yl)-1-(2-methyl-6-pyrrolidin-1-yl-pyridin-3-yl)-1,3-dihydro-imidazo[4,5-c]quinolin-2-one], the pIC50 was 7.62 at PI3K delta and 7.47 at mTOR.

For the compound `Cc1nc(N2CCC(O)C2)ccc1-n1c(=O)n(C)c2cnc3ccc(-c4cncc(OC(C)C)c4)cc3c21` (centres unmarked) [Example 27.1, 1-[6-(3-Hydroxy-pyrrolidin-1-yl)-2-methyl-pyridin-3-yl]-8-(5-isopropoxy-pyridin-3-yl)-3-methyl-1,3-dihydro-imidazo[4,5-c]quinolin-2-one], the pIC50 on PI3K delta was 8.05; at mTOR it was 7.60.

With `Cc1nc(C(C)(C)O)ccc1-n1c(=O)n(C)c2cnc3ccc(-c4cncc(OC(C)C)c4)cc3c21` [Example 31.9, 1-[6-(1-Hydroxy-1-methyl-ethyl)-2-methyl-pyridin-3-yl]-8-(5-isopropoxy-pyridin-3-yl)-3-methyl-1,3-dihydro-imidazo[4,5-c]quinolin-2-one], the figures for the pIC50 at PI3K delta and at mTOR were 7.85 and 6.86, respectively.

As to `CNc1cc(-c2ccc3ncc4c(c3c2)n(-c2ccc(C(F)(F)F)nc2C)c(=O)n4C)cnc1CO` [Example 33.2, 8-(6-Hydroxymethyl-5-methylamino-pyridin-3-yl)-3-methyl-1-(2-methyl-6-trifluoromethyl-pyridin-3-yl)-1,3-dihydro-imidazo[4,5-c]quinolin-2-one], the pIC50 on PI3K delta is 8.00; at mTOR it was 8.52.

Regarding `Cc1nc(N2CC(F)(F)C(F)(F)C2)ccc1-n1c(=O)n(C)c2cnc3ccc(-c4cncc(C(C)(C)O)c4)cc3c21` [Example 35.1, 8-[5-(1-Hydroxy-1-methyl-ethyl)-pyridin-3-yl]-3-methyl-1-[2-methyl-6-(3,3,4,4-tetrafluoro-pyrrolidin-1-yl)-pyridin-3-yl]-1,3-dihydro-imidazo[4,5-c]quinolin-2-one], the pIC50 at PI3K delta is 8.30; at mTOR, 7.17.
